Reference: PubChem BioAssay (NCI)
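Dose response: 5 concentrations. Exposure: 48 h. Format: 96-well plates. Endpoint: linear interpolation; highest concentration if not reached. At the GI50, growth is halved. TGI is the concentration that stops growth completely.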

Columns and labels:
Experiment in all cases: NCI-60 cell line screen, 48 h
HCT-15 colon = tested on: HCT-15 colon
K-562 leukemia = tested on: K-562 leukemia
MOLT-4 leukemia = tested on: MOLT-4 leukemia
OVCAR-8 ovarian = tested on: OVCAR-8 ovarian
RPMI-8226 leukemia = tested on: RPMI-8226 leukemia
SF-295 CNS = tested on: SF-295 CNS
SK-MEL-28 melanoma = tested on: SK-MEL-28 melanoma
SNB-75 CNS = tested on: SNB-75 CNS
UACC-257 melanoma = tested on: UACC-257 melanoma
UO-31 renal = tested on: UO-31 renal

Structure (SMILES) | TGI (HCT-15 colon) [µM] | TGI (K-562 leukemia) [µM] | TGI (MOLT-4 leukemia) [µM] | TGI (OVCAR-8 ovarian) [µM] | TGI (RPMI-8226 leukemia) [µM] | TGI (SF-295 CNS) [µM] | TGI (SK-MEL-28 melanoma) [µM] | TGI (SNB-75 CNS) [µM] | TGI (UACC-257 melanoma) [µM] | GI50 (HCT-15 colon) [µM] | GI50 (K-562 leukemia) [µM] | GI50 (MOLT-4 leukemia) [µM] | GI50 (OVCAR-8 ovarian) [µM] | GI50 (SF-295 CNS) [µM] | GI50 (SK-MEL-28 melanoma) [µM] | GI50 (SNB-75 CNS) [µM] | GI50 (UACC-257 melanoma) [µM] | GI50 (UO-31 renal) [µM] | TGI (UO-31 renal) [µM] | GI50 (RPMI-8226 leukemia) [µM]
CCON=C1C(C)(C)C(C)(C)C(C)(C)C1(C)C | > 100 | > 100 | > 100 | > 100 | > 100 | > 100 | > 100 | > 100 | > 100 |  |  |  |  |  |  |  |  |  |  | 
CCCCCCCCCCCCCCCC(=O)OCC1OC(n2cnc3c(=S)nc(N)[nH]c32)C(OC(=O)CCCCCCCCCCCCCCC)C1OC(=O)CCCCCCCCCCCCCCC (stereo unspecified) | > 50 | > 50 | > 50 | > 50 |  | 24.4 | > 50 | > 50 | > 50 | 6.17 | 2.05 | 2.95 | 3.42 | 1.63 | > 39 | 4.38 | > 50 | 9.49 | > 50 | 
Cn1c(=O)c(Oc2cccc(F)c2)cc2cnc(NC3CCOCC3)nc21 | > 25 | > 25 |  | > 25 | > 25 | > 25 | > 25 | > 25 | > 25 | > 25 | > 25 |  | > 25 | > 25 | > 25 | > 6.38 | > 25 | > 8.3 | > 13 | > 25
Cc1cc(=O)c2cc(N=Cc3ccc([N+](=O)[O-])o3)ccc2o1 | > 100 | > 100 | > 100 |  | > 100 | > 100 | > 100 | > 100 | > 100 |  |  |  |  |  |  |  |  |  | > 100 | 
CO/C(=N\N=C\c1ccc(Cl)cc1Cl)c1ccncc1 | > 10 | > 10 | > 10 | > 10 | > 10 | > 10 |  |  | > 10 |  |  |  |  |  |  |  |  |  | > 10 | 
NC1C2C(CC(=O)O)OCC=C3CN4CCC1(C(=O)C(=O)O)C4CC32 (stereo unspecified) | > 100 | > 100 | > 100 | > 100 |  | > 100 | > 100 | > 100 | > 100 |  |  |  |  |  |  |  |  |  | > 100 | 
NC1CCCCC1N.O=C([O-])P(=O)([O-])[O-].[Na+].[Pt+4] (stereo unspecified) |  | > 100 | > 100 | > 100 | > 100 | > 100 | > 100 | > 100 | > 100 |  | > 100 | 29.1 | 98.2 | > 100 | > 100 | > 100 | > 100 | > 100 | > 100 | 22.2
CCOC(=O)c1cc2c(n1Cc1cc(OC)cc(OC)c1)-c1oncc1CCC2 | > 100 | > 100 | > 100 | > 100 | > 33.7 | 0.14 | > 100 | > 100 |  | 0.0678 | 0.0575 | 0.387 | 0.169 | 0.0291 | 0.143 | 0.0276 |  | 0.392 | > 100 | 0.116
O=C1CCC2CCc3cccc4oc1c2c34 (stereo unspecified) | > 100 | > 100 | > 100 | > 100 | > 100 | 84.1 | > 100 | > 100 | > 100 |  |  |  |  |  |  |  |  |  |  | 
CC1=C(C)CC2(SC1)C(=O)c1ccccc1C2=O | > 100 | > 100 | > 100 | > 100 | > 100 | > 100 |  | > 100 | > 100 |  |  |  |  |  |  |  |  |  | > 100 | 
COC(=O)c1ccccc1C#CCCCOS(C)(=O)=O | > 10 | > 10 | > 10 | > 10 | > 10 | > 10 | > 10 |  | > 10 |  |  |  |  |  |  |  |  |  | > 10 | 
CSc1ccc(-c2cc(-c3ccc(NC(=O)CCCN4CCCC4)cc3)nc(-c3ccc(NC(=O)CCCN4CCCC4)cc3)c2)cc1 |  | 3.31 | 3.62 | 13.6 | 4.56 | 15.4 | 20.7 | 4.99 | 25.2 |  | 1.64 | 1.79 | 3.3 | 3.29 | 3.83 | 1.64 | 4.94 | 15.5 | 37.8 | 2.16
N=S(=O)(c1ccccc1)c1ccccc1[N+](=O)[O-] (stereo unspecified) | > 100 | > 100 | > 100 | > 100 | > 100 | > 100 |  | > 100 | > 100 |  |  |  |  |  |  |  |  |  | > 100 | 
NS(=O)(=O)c1ccc(C2C3=C(CCCC3=O)OC3=C2C(=O)c2ccccc2C3=O)cc1 (stereo unspecified) | 3.46 | 2.35 | 0.848 |  | 1.99 | 3.31 | 2.92 | 1.17 | 0.922 | 1.33 | 0.46 | 0.293 |  | 1.57 | 1.42 | 0.259 | 0.275 | 1.55 | 2.92 | 0.41
O=c1[nH]c(-c2ccccc2)nc2ccc(Cl)cc12 | > 100 | > 100 | > 100 | > 100 | > 100 | > 100 | > 100 |  | > 100 |  |  |  |  |  |  |  |  |  | > 100 | 
CCOP(=O)(OCC)/C(=C\N1C(=O)CC(=O)NC1=S)C(=O)OC | > 100 |  | > 100 | > 100 |  | > 100 | > 100 | > 100 | > 100 |  |  |  |  |  |  |  |  |  | > 100 | 
Nc1ccc(N=Nc2ccccc2)c(N)n1 | > 100 | > 100 | > 100 | > 100 | > 100 | 50.9 |  |  | > 100 | 35.8 | 42.7 | 35.4 | 37.5 | 17 |  |  | 38.6 | 13.7 | 43 | 36.2
O=C(Nc1c(Cl)cc([N+](=O)[O-])cc1Cl)C(=O)C1C(=O)NC(=S)NC1=O | > 100 | > 100 |  | > 100 | > 100 | > 100 | > 100 | > 100 | > 100 |  |  |  |  |  |  |  |  |  | > 100 | 
